Data: ChEMBL document CHEMBL4706485, “Development of cell-permeable peptide-based PROTACs targeting estrogen receptor α” (Eur J Med Chem, 2020)
The source made the active and inactive calls. No cut-off for these calls is given here. Square brackets hold non-standard residues; d marks the D form. Peptide text beside a SMILES is read from it. Hyp = O=C(O)[C@@H]1C[C@@H](O)CN1; Ahx = NCCCCCC(=O)O

Tests used:
[1] = molecular target: T1, von Hippel-Lindau disease tumor suppressor/Estrogen receptor (Homo sapiens) (UniProt P03372+P40337); test: Protac activity at VHL/ERalpha in human MCF7 cells assessed as degradation of ERalpha protein level at 10 uM after 12 hrs by Western blot analysis; assay type: cell-based
T1 sequence (P03372 whole entry, looked up): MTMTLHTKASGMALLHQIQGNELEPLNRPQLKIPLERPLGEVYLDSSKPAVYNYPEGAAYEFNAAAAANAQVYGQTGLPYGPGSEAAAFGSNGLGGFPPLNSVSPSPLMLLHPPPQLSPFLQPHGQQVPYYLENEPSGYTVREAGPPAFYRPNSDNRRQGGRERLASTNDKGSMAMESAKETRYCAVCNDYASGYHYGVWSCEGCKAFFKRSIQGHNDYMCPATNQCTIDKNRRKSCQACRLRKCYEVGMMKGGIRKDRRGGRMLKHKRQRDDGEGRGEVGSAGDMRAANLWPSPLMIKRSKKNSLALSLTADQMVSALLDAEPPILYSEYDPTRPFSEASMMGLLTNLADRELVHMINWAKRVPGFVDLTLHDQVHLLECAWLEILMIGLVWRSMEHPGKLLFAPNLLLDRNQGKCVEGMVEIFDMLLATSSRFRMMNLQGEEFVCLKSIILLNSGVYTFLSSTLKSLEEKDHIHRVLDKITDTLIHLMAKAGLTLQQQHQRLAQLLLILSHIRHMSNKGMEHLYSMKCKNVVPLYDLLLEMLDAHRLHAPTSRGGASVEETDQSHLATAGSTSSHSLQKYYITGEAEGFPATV
T1 sequence (P40337 whole entry, looked up): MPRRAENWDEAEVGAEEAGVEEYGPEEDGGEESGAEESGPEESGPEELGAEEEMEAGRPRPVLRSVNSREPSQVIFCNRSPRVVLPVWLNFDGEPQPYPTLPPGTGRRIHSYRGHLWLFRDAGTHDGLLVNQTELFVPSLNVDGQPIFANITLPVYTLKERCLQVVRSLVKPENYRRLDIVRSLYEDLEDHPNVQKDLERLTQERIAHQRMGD

MCF7 [2] = test: Induction of apoptosis in human MCF7 cells assessed as late apoptotic cells at 10 uM after 12 hrs by annexinV-FITC/PI staining based flow cytometric analysis (reference value: 0.9 to 1.9%); assay type: functional
[3] = Drug uptake in human MCF7 cells at 10 uM FITC labelled form of compound after 12 hrs by flow cytometric analysis; assay type: ADME, cell-based; conditions: mcf7, 12 h
MCF7 [4] = test: Cytotoxicity against human MCF7 cells assessed as reduction in cell viability at 5 to 80 uM after 48 hrs by MTT assay; assay type: functional, cell-based; conditions: dose 5-80 µM
MCF7 [5] = test: Induction of apoptosis in human MCF7 cells assessed as early apoptotic cells at 10 uM after 12 hrs by annexinV-FITC/PI staining based flow cytometric analysis (reference value: 0.8 to 1.6%); assay type: functional
MCF7 [6] = test: Induction of apoptosis in human MCF7 cells assessed as viable cells at 10 uM after 12 hrs by annexinV-FITC/PI staining based flow cytometric analysis (reference value: 95.4 to 97.6%); assay type: functional; conditions: read-out: Activity
MCF7 [7] = test: Induction of apoptosis in human MCF7 cells assessed as necrotic cells at 10 uM after 12 hrs by annexinV-FITC/PI staining based flow cytometric analysis (reference value: 0.7 to 1.1%); assay type: functional
[8] = molecular target: von Hippel-Lindau disease tumor suppressor/Progesterone receptor (Homo sapiens) (UniProt P06401+P40337); test: Protac activity at VHL/PR in human MCF7 cells assessed as degradation of PR protein level at 10 uM after 12 hrs by Western blot analysis; assay type: cell-based
Chain of von Hippel-Lindau disease tumor suppressor/Progesterone receptor (Homo sapiens) (P06401 whole entry, looked up): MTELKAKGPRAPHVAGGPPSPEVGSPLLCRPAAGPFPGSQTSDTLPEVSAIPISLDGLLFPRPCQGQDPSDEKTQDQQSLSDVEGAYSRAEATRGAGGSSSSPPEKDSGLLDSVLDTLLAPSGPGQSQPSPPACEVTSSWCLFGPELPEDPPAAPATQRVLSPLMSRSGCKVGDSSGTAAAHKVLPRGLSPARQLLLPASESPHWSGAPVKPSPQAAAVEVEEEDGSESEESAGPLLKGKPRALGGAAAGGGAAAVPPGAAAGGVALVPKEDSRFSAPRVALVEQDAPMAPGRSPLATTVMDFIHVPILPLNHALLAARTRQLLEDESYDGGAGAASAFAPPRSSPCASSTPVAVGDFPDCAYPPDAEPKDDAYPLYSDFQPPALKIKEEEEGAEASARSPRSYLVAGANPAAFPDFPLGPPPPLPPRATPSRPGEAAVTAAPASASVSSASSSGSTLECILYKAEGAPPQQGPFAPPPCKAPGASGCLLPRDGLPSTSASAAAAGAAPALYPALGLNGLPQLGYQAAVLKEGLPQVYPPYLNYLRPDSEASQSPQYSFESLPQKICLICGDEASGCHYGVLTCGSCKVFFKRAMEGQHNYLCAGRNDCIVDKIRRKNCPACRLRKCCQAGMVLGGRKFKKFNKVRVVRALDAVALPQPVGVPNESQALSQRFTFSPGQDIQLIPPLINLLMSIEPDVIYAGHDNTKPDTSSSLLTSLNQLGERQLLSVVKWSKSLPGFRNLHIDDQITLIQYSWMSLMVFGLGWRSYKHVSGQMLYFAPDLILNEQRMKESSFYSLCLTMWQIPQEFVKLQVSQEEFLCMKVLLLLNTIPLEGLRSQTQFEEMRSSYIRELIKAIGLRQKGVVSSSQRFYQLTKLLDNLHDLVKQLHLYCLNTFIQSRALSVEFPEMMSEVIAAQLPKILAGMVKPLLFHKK
Chain of von Hippel-Lindau disease tumor suppressor/Progesterone receptor (Homo sapiens) (P40337 whole entry, looked up): as the sequence (P40337 whole entry, looked up) above

MCF7 [9] = test: Induction of apoptosis in human MCF7 cells assessed as late apoptotic cells at 5 uM after 12 hrs by annexinV-FITC/PI staining based flow cytometric analysis (reference value: 0.9 to 1.9%); assay type: functional
MCF7 [10] = test: Induction of apoptosis in human MCF7 cells assessed as viable cells at 5 uM after 12 hrs by annexinV-FITC/PI staining based flow cytometric analysis (reference value: 95.4 to 97.6%); assay type: functional; conditions: read-out: Activity
MCF7 [11] = test: Induction of apoptosis in human MCF7 cells assessed as necrotic cells at 20 uM after 12 hrs by annexinV-FITC/PI staining based flow cytometric analysis (reference value: 0.7 to 1.1%); assay type: functional
MCF7 [12] = test: Induction of apoptosis in human MCF7 cells assessed as late apoptotic cells at 20 uM after 12 hrs by annexinV-FITC/PI staining based flow cytometric analysis (reference value: 0.9 to 1.9%); assay type: functional
[13] = Toxicity in BALB/c mouse implanted with mouse 4T1 cells assessed as change in body weight at 10 umol/kg administered peri-tumor injection for 21 days; conditions: in vivo, other, 504 h, dose 10 µmol/kg, time 21 day
MCF7 [14] = test: Cytotoxicity against human MCF7 cells assessed as reduction in cell viability after 48 hrs by MTT assay; assay type: functional, cell-based
[15] = molecular target: von Hippel-Lindau disease tumor suppressor/Vitamin D3 receptor (Homo sapiens) (UniProt P11473+P40337); test: Protac activity at VHL/VDR in human MCF7 cells assessed as degradation of VDR protein level at 10 uM after 12 hrs by Western blot analysis; assay type: cell-based
Chain of von Hippel-Lindau disease tumor suppressor/Vitamin D3 receptor (Homo sapiens) (P11473 whole entry, looked up): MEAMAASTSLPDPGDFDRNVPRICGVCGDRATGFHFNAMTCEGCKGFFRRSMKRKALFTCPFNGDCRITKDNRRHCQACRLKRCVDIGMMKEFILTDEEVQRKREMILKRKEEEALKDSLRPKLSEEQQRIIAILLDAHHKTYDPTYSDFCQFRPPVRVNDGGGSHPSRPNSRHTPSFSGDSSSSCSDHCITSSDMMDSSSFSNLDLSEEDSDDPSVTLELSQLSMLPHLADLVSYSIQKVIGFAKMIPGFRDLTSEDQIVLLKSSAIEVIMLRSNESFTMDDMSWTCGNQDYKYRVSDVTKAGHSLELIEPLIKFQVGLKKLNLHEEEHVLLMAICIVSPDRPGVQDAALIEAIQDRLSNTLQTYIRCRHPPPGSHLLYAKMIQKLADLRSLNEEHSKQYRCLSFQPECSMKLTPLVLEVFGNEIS
Chain of von Hippel-Lindau disease tumor suppressor/Vitamin D3 receptor (Homo sapiens) (P40337 whole entry, looked up): as the sequence (P40337 whole entry, looked up) above

A2780 = test: Cytotoxicity against human A2780 cells assessed as reduction in cell viability at 5 to 80 uM after 48 hrs by MTT assay; assay type: functional, cell-based; conditions: dose 5-80 µM
MCF7 [16] = test: Induction of apoptosis in human MCF7 cells assessed as increase in necrotic cells after 12 hrs by annexinV-FITC/PI staining based flow cytometric analysis; assay type: functional, cell-based; conditions: dose 5-20 µM
MCF7 [17] = test: Induction of apoptosis in human MCF7 cells assessed as viable cells at 20 uM after 12 hrs by annexinV-FITC/PI staining based flow cytometric analysis (reference value: 95.4 to 97.6%); assay type: functional; conditions: read-out: Activity
[18] = molecular target: T1, von Hippel-Lindau disease tumor suppressor/Estrogen receptor (Homo sapiens); test: Protac activity at VHL/ERalpha in human MCF7 cells assessed as increase in ubiquitinated-ERalpha at 10 uM after 6 hrs in presence of MG-132 by Western blot analysis; assay type: cell-based
MDA-MB-231 = test: Cytotoxicity against human MDA-MB-231 cells assessed as reduction in cell viability at 5 to 80 uM after 48 hrs by MTT assay; assay type: functional, cell-based; conditions: dose 5-80 µM
MCF7 [19] = test: Induction of apoptosis in human MCF7 cells assessed as increase in late apoptotic cells after 12 hrs by annexinV-FITC/PI staining based flow cytometric analysis; assay type: functional, cell-based; conditions: dose 5-20 µM
MCF7 [20] = test: Induction of apoptosis in human MCF7 cells assessed as early apoptotic cells at 5 uM after 12 hrs by annexinV-FITC/PI staining based flow cytometric analysis (reference value: 0.8 to 1.6%); assay type: functional
MCF7 [21] = test: Induction of apoptosis in human MCF7 cells assessed as early apoptotic cells at 20 uM after 12 hrs by annexinV-FITC/PI staining based flow cytometric analysis (reference value: 0.8 to 1.6%); assay type: functional
[22] = Drug uptake in human MCF7 cells FITC labelled form of compound by flow cytometric analysis; assay type: ADME, cell-based; conditions: dose lower 2 µM, time lower 2 hrs, dose upper 16 µM, time upper 24 hrs
MCF7 [23] = test: Induction of apoptosis in human MCF7 cells assessed as necrotic cells at 5 uM after 12 hrs by annexinV-FITC/PI staining based flow cytometric analysis (reference value: 0.7 to 1.1%); assay type: functional
[24] = molecular target: T1, von Hippel-Lindau disease tumor suppressor/Estrogen receptor (Homo sapiens); test: Protac activity at VHL/ERalpha in human A2780 cells assessed as degradation of ERalpha protein level at 10 uM after 12 hrs by Western blot analysis; assay type: cell-based
HUVEC = test: Cytotoxicity against human HUVEC cells assessed as reduction in cell viability at 5 to 80 uM after 48 hrs by MTT assay; assay type: cell-based; conditions: dose 5-80 µM
4T1 = test: Antitumour activity against mouse 4T1 cells implanted in BALB/c mouse assessed as inhibition in tumor growth at 10 umol/kg administered peri-tumor injection for 21 days relative to control; assay type: functional; conditions: 4T1, 504 h, time 21 day, read-out: TGI
[25] = Drug uptake in human MCF7 cells at 10 uM FITC labelled form of compound after 3 hrs by Hoechst 33258 staining based fluorescence microscopic analysis; assay type: ADME, cell-based; conditions: mcf7, 3 h
MCF7 [26] = test: Cytotoxicity against human MCF7 cells assessed as reduction in cell viability at 20 uM after 48 hrs by MTT assay; assay type: functional, cell-based

## CC[C@H](C)[C@H](NC(=O)[C@H](Cc1ccc(O)cc1)NC(=O)[C@@H]1C[C@@H](O)CN1C(=O)[C@H](C)NC(=O)[C@H](CC(C)C)NC(=O)CCCCCNC(=O)[C@H](CCC(N)=O)NC(=O)[C@H](CC(C)C)NC(=O)C(CC(C)(C)C)NC(=O)[C@H](CCCNC(=N)N)NC(=O)[C@@H]1CNC(=O)C(N[C@@H](CCCNC(=N)N)C(N)=O)CC(=O)N[C@@H]([C@@H](C)CC)C(=O)N[C@@H](CC(C)C)C(=O)N1)C(N)=O (some centres undefined)
[1]
  Activity: Active
MCF7 [2]
  Activity: 7.9%
[3]
  Drug uptake: Active
MCF7 [4]
  Activity: Active
MCF7 [5]
  Activity: 0.9%
MCF7 [6]
  viability at 10 µM: 78.5%
MCF7 [7]
  Activity: 12.7%

## CC[C@H](C)[C@H](NC(=O)[C@H](Cc1ccc(O)cc1)NC(=O)[C@@H]1C[C@@H](O)CN1C(=O)[C@H](C)NC(=O)[C@H](CC(C)C)NC(=O)CCCCCNC(=O)[C@H](CCC(N)=O)NC(=O)C(CC(C)(C)C)NC(=O)C(CC(C)(C)C)NC(=O)[C@H](CCCNC(=N)N)NC(=O)[C@@H]1CNC(=O)C(N[C@@H](CCCNC(=N)N)C(N)=O)CC(=O)N[C@@H]([C@@H](C)CC)C(=O)NC(CC(C)(C)C)C(=O)N1)C(N)=O (some centres undefined)
[8]
  Activity: inactive
MCF7 [9]
  Activity: 6%
MCF7 [10]
  viability at 5 µM: 87.2%
[1]
  Activity: Active
MCF7 [2]
  Activity: 13.6%
MCF7 [11]
  Activity: 44.6%
MCF7 [12]
  Activity: 26.2%
[13]
  Activity: Non-Toxic
MCF7 [14]
  Activity: Dose-dependent effect
MCF7 [14]; MCF7, 48 h
  IC50: 9.7 µM
[15]
  Activity: inactive
A2780
  Activity: Active
[3]
  Drug uptake: Active
MCF7 [16]
  Activity: Dose-dependent effect
MCF7 [17]
  viability at 20 µM: 28.8%
[18]
  Activity: Active
MDA-MB-231
  Activity: Active
MCF7 [19]
  Activity: Dose-dependent effect
MCF7 [20]
  Activity: 1.3%
MCF7 [21]
  Activity: 0.4%
[22]
  Drug uptake: Dose-dependent effect and Tde
MCF7 [23]
  Activity: 5.5%
MCF7 [4]
  Activity: Active
[24]
  Activity: Active
HUVEC
  Activity: Non-Toxic
MCF7 [5]
  Activity: 0.7%
4T1
  inhibition in vivo at 10 µmol/kg: 67%
[25]
  Drug uptake: Active
MCF7 [6]
  viability at 10 µM: 59.5%
MCF7 [7]
  Activity: 26.2%

## CC[C@H](C)[C@H](NC(=O)[C@H](Cc1ccc(O)cc1)NC(=O)[C@@H]1C[C@@H](O)CN1C(=O)[C@H](C)NC(=O)[C@H](CC(C)C)NC(=O)CCCCCNC(=O)[C@H](CCC(N)=O)NC(=O)C(CC(C)(C)C)NC(=O)[C@H](CC(C)C)NC(=O)[C@H](CCCNC(=N)N)NC(=O)[C@@H]1CNC(=O)C(N[C@@H](CCCNC(=N)N)C(N)=O)CC(=O)N[C@@H]([C@@H](C)CC)C(=O)N[C@@H](CC(C)C)C(=O)N1)C(N)=O (some centres undefined)
[1]
  Activity: Active
MCF7 [2]
  Activity: 7.7%
[3]
  Drug uptake: Active
MCF7 [4]
  Activity: Active
MCF7 [5]
  Activity: 0.4%
MCF7 [6]
  viability at 10 µM: 76.7%
MCF7 [7]
  Activity: 15.2%

## CC[C@H](C)[C@H](NC(=O)[C@H](Cc1ccc(O)cc1)NC(=O)[C@@H]1C[C@@H](O)CN1C(=O)[C@H](C)NC(=O)[C@H](CC(C)C)NC(=O)CCCCCNC(=O)[C@H](CCC(N)=O)NC(=O)[C@H](CC(C)C)NC(=O)[C@H](CC(C)C)NC(=O)[C@H](CCCNC(=N)N)NC(=O)[C@@H]1CNC(=O)C(N[C@@H](CCCNC(=N)N)C(N)=O)CC(=O)N[C@@H]([C@@H](C)CC)C(=O)N[C@@H](CC(C)C)C(=O)N1)C(N)=O (some centres undefined)
[1]
  Activity: Active
MCF7 [2]
  Activity: 5.8%
[13]
  Activity: Non-Toxic
[3]
  Drug uptake: Active
MCF7 [4]
  Activity: Active
MCF7 [5]
  Activity: 1.3%
4T1
  inhibition in vivo at 10 µmol/kg: 52%
MCF7 [6]
  viability at 10 µM: 85%
MCF7 [7]
  Activity: 8%

## CC[C@H](C)[C@H](NC(=O)[C@H](Cc1ccc(O)cc1)NC(=O)[C@@H]1C[C@@H](O)CN1C(=O)[C@H](C)NC(=O)[C@H](CC(C)C)NC(=O)CCCCCNC(=O)[C@H](CCC(N)=O)NC(=O)[C@H](CC(C)C)NC(=O)[C@H](CC(C)C)NC(=O)[C@H](CCCNC(=N)N)NC(=O)[C@H](Cc1c[nH]cn1)NC(=O)[C@H](CC(C)C)NC(=O)[C@@H](NC(=O)[C@H](CCCCN)NC(=O)[C@@H](N)Cc1c[nH]cn1)[C@@H](C)CC)C(N)=O (H-HKILHRLLQ[Ahx]LA[Hyp]YI-NH2)
[1]
  Activity: Active
MCF7 [2]
  Activity: 2.7%
MCF7 [26]
  Activity: Active
[3]
  Drug uptake: Active
MCF7 [5]
  Activity: 0.9%
MCF7 [6]
  viability at 10 µM: 93.4%
MCF7 [7]
  Activity: 2.9%

## CC/C(=C(\c1ccccc1)c1ccc(OCCN(C)C)cc1)c1ccccc1 [TAMOXIFEN]
MCF7 [4]
  Activity: Active
4T1
  inhibition in vivo at 10 µmol/kg: 36%

## CC[C@H](C)[C@H](NC(=O)[C@H](Cc1ccc(O)cc1)NC(=O)[C@@H]1C[C@@H](O)CN1C(=O)[C@H](C)NC(=O)[C@H](CC(C)C)NC(=O)CCCCCNC(=O)[C@H](CCC(N)=O)NC(=O)[C@H](CC(C)C)NC(=O)[C@H](CC(C)C)NC(=O)[C@H](CCCNC(=N)N)NC(=O)[C@@H]1CNC(=O)C(N[C@@H](CCCNC(=N)N)C(N)=O)CC(=O)N[C@@H]([C@@H](C)CC)C(=O)NC(CC(C)(C)C)C(=O)N1)C(N)=O (some centres undefined)
[1]
  Activity: Active
MCF7 [2]
  Activity: 7.1%
[3]
  Drug uptake: Active
MCF7 [4]
  Activity: Active
MCF7 [5]
  Activity: 0.7%
MCF7 [6]
  viability at 10 µM: 80.2%
MCF7 [7]
  Activity: 11.9%
